Here are results for 3 molecules from patent US20250108038A1 (priority 2023, published 2025).

One data set has as its target CYP2D6 (Homo sapiens, UniProt P10635). In words: in vitro. Particulars: both, pH 7.4.
The target in data set [1] is T1, CYP2C9 (Homo sapiens, UniProt P11712). The data set can be described thus: in vitro. Particulars: both, pH 7.4.
Data set [2] is described as follows: Stability in beagle dog plasma.
Procedure: Pooled (N≥3) male SD rat, beagle dog and mixed gender human plasma with EDTA-K2 as anticoagulant were purchased from BioIVT (NY, USA) and stored in a −70° C. freezer before use.
Incubations were conducted in 96-well plate format. The time points defined for this study are 0, 5, 15, 30 and 60 minutes.
For positive controls, the rat plasma was spiked with enalapril, the dog plasma spiked with bisacodyl and the human plasma was spiked with propantheline. All spiked plasma sample plates were incubated in a water bath at 37° C. with shaking.
At end of each time point, samples were immediately quenched with three volume of cold quenching solution. All sample plates were mixed thoroughly by shaking for approximately 10 minutes and centrifuged at 3220×g for 15 minutes. Subsequently, 100 μL of supernatant was removed from each well, mixed with 100 μL water in a new 96-well plate and subjected to LC-MS/MS analysis.
Concentrations of test article, metabolite, and control compounds in the samples were analyzed by LC-MS/MS semi-quantitatively. […] The peak area ratios of analyte/internal standard were used to semi-quantitatively determine the concentrations.
The peak area ratios (PAR) of analyte/internal standard were used to semi-quantitatively determine the concentration of test article and control compounds, and calculate the percent remaining with the following equation:
The elimination rate (ke) was calculated from a log linear plot of % remaining versus time. The half-life was calculated using the following equation:
In another data set the target is T2, CYP2C8 (Homo sapiens, UniProt P10632).
T2 sequence (P10632 1-490): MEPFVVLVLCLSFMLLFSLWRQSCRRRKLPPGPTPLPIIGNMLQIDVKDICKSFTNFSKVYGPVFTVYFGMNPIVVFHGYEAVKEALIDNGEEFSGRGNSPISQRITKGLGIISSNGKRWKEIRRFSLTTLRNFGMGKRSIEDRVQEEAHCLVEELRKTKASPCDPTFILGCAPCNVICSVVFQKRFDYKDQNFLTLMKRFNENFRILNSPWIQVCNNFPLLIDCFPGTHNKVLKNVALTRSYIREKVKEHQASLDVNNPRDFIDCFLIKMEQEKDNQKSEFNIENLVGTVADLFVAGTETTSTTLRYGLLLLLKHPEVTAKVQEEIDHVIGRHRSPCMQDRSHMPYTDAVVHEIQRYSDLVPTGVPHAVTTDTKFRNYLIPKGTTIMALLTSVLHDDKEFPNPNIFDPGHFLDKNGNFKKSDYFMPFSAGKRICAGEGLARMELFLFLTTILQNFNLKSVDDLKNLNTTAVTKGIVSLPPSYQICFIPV

A further data set deals with C57BL/6 mice. The data set can be described thus: Tail Suspension Test. The settings on record: for Dunnett's Multiple Comparison Test Mean Diff., immobility on the TST: percent immobility. The class given is in vivo, mouse. The text has this: The Tail Suspension Test is a mouse behavioral test useful for screening for potential antidepressant drugs. The tail suspension test is an experimental method used in scientific research to measure a state of being helpless in rodents, especially in mice. It is based on the observation that if a mouse is subjected to short term inescapable stress, then it will stop struggling. Immobility is quantified by measuring the amount of time lacking whole-body activity.
A cohort of 32 adult male mice was used for locomotor activity and a separate cohort of 40 male mice were used for tail suspension (C57BL/6, 7-8 weeks old; body weights 18-25 g, Charles River Laboratories). Upon arrival at the facility, animals were group-housed (5/cage) with access to food and water ad libitum. Animals were maintained on a 12/12-hour light/dark cycle in a temperature—(22±2° C.) and humidity—(approx. 50%) controlled room. Animals were numbered consecutively by tail ID marker in each home cage. Each home cage was identified by a colored ID card indicating the study number, sex, animal numbers and date of birth.
Animals (8/group) were injected (10 mL/kg, ip) 30 min prior to the TST. For locomotor activity monitoring, mice were injected (10 mL/kg, ip; around 12-1 pm) after a full 24 hr period of recordings were collected for baseline activity. For both locomotor activity recordings and TST, PV-03446 doses included 0.3, 1, 3, and 10 mg/kg.
Tail Suspension Test: A piezoelectric sensor operated by the SmartCage system was utilized and video recording was conducted for scoring. Once animals were acclimated to the testing room, the TST was initiated by placing the tail of the test mouse onto the piezoelectric sensor-board and hanging the mouse upside down. The recording period was initiated once the mouse was upside down and lasted for 6 min. At the end of the recording period, the mouse was removed from the recording device and returned to its home cage. The immobilized time, indicating depression-like behavior, was quantified using manual scoring of the video recording from 120 seconds to 360 seconds during the TST. The percent immobility time was calculated as (immobility time (seconds)/240 seconds)*100.
Group differences found to have normal distribution were evaluated using a 1-way ANOVA followed by a Dunnett's Multiple Comparison Test to compare all treatment groups to the vehicle control. Statistical significance was set at p≤0.05.

In data set [3] the target is T1, CYP2C9.

Some results are limits rather than exact numbers.

T1 sequence (P11712 whole entry): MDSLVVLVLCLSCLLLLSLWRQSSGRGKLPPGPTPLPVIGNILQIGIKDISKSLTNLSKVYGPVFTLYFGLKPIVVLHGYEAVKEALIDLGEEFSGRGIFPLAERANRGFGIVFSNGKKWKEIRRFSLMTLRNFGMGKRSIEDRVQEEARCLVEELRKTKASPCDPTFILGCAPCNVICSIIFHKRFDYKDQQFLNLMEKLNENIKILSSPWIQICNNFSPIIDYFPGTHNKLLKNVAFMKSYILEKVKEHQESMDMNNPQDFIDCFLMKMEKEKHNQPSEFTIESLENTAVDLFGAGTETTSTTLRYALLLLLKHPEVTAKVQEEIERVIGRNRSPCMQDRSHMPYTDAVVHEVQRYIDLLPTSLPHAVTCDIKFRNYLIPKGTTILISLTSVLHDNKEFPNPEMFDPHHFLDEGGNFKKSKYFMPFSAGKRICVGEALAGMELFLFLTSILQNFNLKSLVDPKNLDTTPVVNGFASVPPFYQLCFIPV
Chain of CYP2D6 (P10635 whole entry): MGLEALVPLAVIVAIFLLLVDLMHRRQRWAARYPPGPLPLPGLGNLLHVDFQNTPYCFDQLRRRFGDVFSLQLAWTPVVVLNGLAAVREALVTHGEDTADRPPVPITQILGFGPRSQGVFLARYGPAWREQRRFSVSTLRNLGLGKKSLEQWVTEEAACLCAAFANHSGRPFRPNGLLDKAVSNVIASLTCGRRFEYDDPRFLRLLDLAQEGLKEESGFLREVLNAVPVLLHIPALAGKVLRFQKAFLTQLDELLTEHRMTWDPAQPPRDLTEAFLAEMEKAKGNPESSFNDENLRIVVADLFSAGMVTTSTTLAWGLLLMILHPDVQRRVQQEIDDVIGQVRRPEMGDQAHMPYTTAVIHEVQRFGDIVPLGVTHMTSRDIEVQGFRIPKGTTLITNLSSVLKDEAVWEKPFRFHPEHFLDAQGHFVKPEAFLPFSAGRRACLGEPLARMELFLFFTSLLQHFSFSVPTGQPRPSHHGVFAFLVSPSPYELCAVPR

What is called inhibition is the share of the control response that was lost under treatment. `OC1(c2ccc(Cl)cc2)c2ccccc2C2=NCCN21` (stereo not shown) [Compound A, 5-(4-chlorophenyl)-2,3-dihydroimidazo[1,2-b]isoindol-5-ol, reference compound]: the inhibition at 10 µM against CYP2D6 came out at 70.8%; against CYP2C9 [1], 10.2%.
For the molecule `COCCOC1(c2ccc(Cl)cc2)c2ccccc2C2=NCCN21` (stereo not shown) [Compound I-4], the “Compound A formed (Aa/Ai)” value in data set [2] (0 min) was found to be 0.48; in data set [2] (5 min), 0.46; in data set [2] (15 min), 0.46; in data set [2] (30 min), 0.42; in data set [2] (60 min), 0.39. In addition, the “% Remaining” value in data set [2] (2.0 μM, 0 min) stood at 100%; in data set [2] (2.0 μM, 5 min) it was 93.5%; in data set [2] (2.0 μM, 15 min) it was 92.0%; in data set [2] (2.0 μM, 30 min), 89.2%; in data set [2] (2.0 μM, 60 min), 83.7%. The “Aa/Ai Mean (N = 2)” value is given as 2.24 in data set [2] (2.0 μM, 0 min); 2.10 in data set [2] (2.0 μM, 5 min); 2.07 in data set [2] (2.0 μM, 15 min); 2.00 in data set [2] (2.0 μM, 30 min); 1.88 in data set [2] (2.0 μM, 60 min). The molecule further displayed a T1/2 in data set [2] (2.0 μM, 60 min incubation) of over 187 min.
For orientation: IC50 means the midpoint of a concentration-inhibition curve. Read a high IC50 as a need for much substance. For the molecule `Clc1ccc(C2(OCC3OCCO3)c3ccccc3C3=NCCN32)cc1` (stereo not shown) [Compound I-19], the “Inhibition at Highest Test Article Concentration” value at CYP2C8 (2C8, Amodiaquine, at 50 μM) is listed as 73.7 at 50 μM %; on CYP2C9 [3] (2C9, Diclofenac, at 50 μM) it was 53.3 at 50 μM %. The IC50 at CYP2C8 (microsomes) is 2380 nM; on CYP2C9 [3] (pooled human liver microsomes, 30 min), “did not inhibit”. In the data set with C57BL/6 mice (0.3, 1.0, 3.0, 10.0 mg/kg IP vs control, 5 groups), the “One-way analysis of variance F, immobility on the TST” value is listed as 4.71. The “immobility (%)” value with C57BL/6 mice (0.3, 1.0, 3.0 and 10.0 mg/kg, IP, 30 min prior to TST) is on record as “significant reduction in immobility (%) at all doses tested”. In addition, in the data set on C57BL/6 mice (0.3-10 mg/kg IP, depending on the dose), the “decrease of immobility compared to vehicle” value is on record as 26-38%. Also, the “Dunnett's Multiple Comparison Test Significant? P < 0.05?, immobility on the TST” value with C57BL/6 mice (Control vs 0.3 mg/kg IP), with C57BL/6 mice (Control vs 1.0 mg/kg IP), in the data set with C57BL/6 mice (Control vs 3.0 mg/kg IP) and with C57BL/6 mice (Control vs 10.0 mg/kg IP) was “Yes” throughout. In addition, the “Dunnett's Multiple Comparison Test q, immobility on the TST” value in the data set with C57BL/6 mice (Control vs 0.3 mg/kg IP) came out at 2.592; with C57BL/6 mice (Control vs 1.0 mg/kg IP), 3.739; in the data set with C57BL/6 mice (Control vs 3.0 mg/kg IP) it was 3.773; in the data set on C57BL/6 mice (Control vs 10.0 mg/kg IP), 2.626. Besides, the “Dunnett's Multiple Comparison Test Mean Diff., immobility on the TST” value is 19.9 with C57BL/6 mice (Control vs 0.3 mg/kg IP), 28.7 with C57BL/6 mice (Control vs 1.0 mg/kg IP), 28.96 in the data set with C57BL/6 mice (Control vs 3.0 mg/kg IP) and 20.16 in the data set with C57BL/6 mice (Control vs 10.0 mg/kg IP).
